In patent publication US20020151522A1, “Regulation of weight” (priority 2001, published 2002):
Where two headings read alike, the source gives them in different places.

B1: BDNF: brain-derived neurotrophic factor (protein, UniProt P23560 19-247, looked up)
Neurotrophic factor BDNF …: APMKEANIRGQGGLAYPGVRTHGTLESVNGPKAGSRGLTSLADTFEHVIEELLDEDQKVRPNEENNKDADLYTSRVMLSSQVPLEPPLLFLLEEYKNYLDAANMSMRVRRHSDPARRGELSVCDSISEWVTAADKKTAVDMSGGTVTVLEKVPVSKGQLKQYFYETKCNPMGYTKEGCRGIDKRHWNSQCRTTQSYVRALTMDSKKRIGWRFIRIDTSCVCTLTIKRGR
B2: GDNF: glial-derived neurotrophic factor (protein, UniProt P39905 78-211, looked up)
Glial cell line-derived …: SPDKQMAVLPRRERNRQAAAANPENSRGKGRRGQRGKNRGCVLTAIHLNVTDLGLGYETKEELIFRYCSGSCDAAETTYDKILKNLSRNRRLVSDKVGQACCRPIAFDDDLSFLDDNLVYHILRKHSAKRCGCI

How the values were obtained:
[1] = Body weight gain over 14 days after unilateral fimbria-fornix lesion with daily intracerebroventricular infusion; type: in vivo, rat; conditions: male Wistar rats, fimbria-fornix lesion/cannulation; icv 2 μL daily for 14 days; GPE 3 μg/day, IGF-I 20 μg/day, NGF 1 μg/day
Text: A group of male Wistar rats weighing 174-193 g (University of Auckland, Animal Resources Unit) were divided randomly into the following groups: “control”, “sham”, “vehicle”, “GPE”, “IGF-I”, and “NGF”, depending on the treatment each animal was to undergo. “Control” animals were weighed at the first and last time points and were not treated or handled at any other time. “Sham” animals underwent a sham surgery of anesthesia, incision through the scalp skin, drill hole through the skull, bone wax to seal the drill hole, and sutures for the skin incision. They were then handled daily in mock infusions to mimic handling of animals that received lesions and intracerebroventricular infusions.
“Vehicle”, “GPE”, “IGF-I”, and “NGF” animals were anaesthetized with 75 mg/Kg sodium pentobarbital and positioned in a stereotaxic apparatus (Kopf Instruments, USA), and underwent unilateral fimbria-fomix lesions to lesion septal cholinergic neurons and chronic cannula implantation into the left lateral cerebral ventricle. Fomix-fimbria lesions were performed by transecting the fimbria-fornix projection using a specialized retractable wire Scouten knife (Kopf Instruments) designed to minimize tissue damage except at the required lesion site. Anaesthetized animals received an incision through their scalp skin and a small drill hole was made in the skull at the stereotaxic coordinates anterior-posterior (AP) axis −1.0 mm from the bregma and medial-lateral (ML) axis +2.5 mm from midline (left side), from an atlas of the rat brain (Paxinos et al. (1986), “The rat brain in stereotaxic coordinates”, Academic Press, London). The knife was lowered into the brain through the drill hole to the coordinate +6.0 mm ventral to the skull on the dorsal-ventral (DV) axis. The knife blade was then extended 2.5 mm toward midline at an angle of 30° caudal to the bregma. The knife, with blade extended, was then raised 4.5 mm dorsally to axotomize the fimbriafomix fibres. The blade was then retracted, the knife lowered 4.5 mm to its original coordinate, and the process was repeated. […]

[2] = Weight gain in human patient suffering from a head injury, central administration for 14 days; type: in vivo
Experimental: GPE in a dose of 10 μg/Kg/day is administered via lateral cerebroventricular injection into the brain of a human patient suffering from a head injury to promote weight gain to normal levels. Alternatively, a GPE analog is administered. Treatment is commenced as soon as possible after the head injury and then for 14 days thereafter.
A GPE analog in a dose of 20 μg/Kg/day is administered via focal injection into the lateral cerebral ventricle of a human patient suffering from a head injury to promote weight gain to normal levels. Alternatively, GPE is administered. Treatment is commenced as soon as possible after the head injury and then for 14 days thereafter.
GPE in a dose of 5 μg/Kg/day is administered via a surgically inserted shunt into the lateral cerebral ventricle of a human patient suffering from a head injury to promote weight gain to normal levels. Alternatively, a GPE analog is administered. Treatment is commenced as soon as possible after the head injury and then for 14 days thereafter.

[3] = intravenous, humans after moderate to severe head injury; cited from earlier work
[4] = administered into the brain, adult rats after transient forebrain ischemia; cited from earlier work
[5] = infused in the brain of adult rats with partial or full lesions, e.g. partial fimbria-fornix transection; cited from earlier work
[6] = intracerebroventricular, patients with Alzheimer's disease; cited from earlier work
[7] = administered to the brain of normal, unlesioned rats; cited from earlier work

Molecule | weight gain over the 14 days [1] | effect on body weight [5] | effect on body weight [7] | further results
NCC(=O)N1CCC[C@H]1C(=O)N[C@@H](CCC(=O)O)C(=O)O [GPE, glycyl-L-prolyl-L-glutamic acid] | the normally expected weight gain occurred |  |  | weight gain in the patient ([2]; 5 μg/Kg/day via surgically inserted shunt into the lateral cerebral ventricle): Normal weight gain is promoted; weight gain in the patient ([2]; 10 μg/Kg/day via lateral cerebroventricular injection): Normal weight gain is promoted; weight gain in the patient ([2]; 20 μg/Kg/day via focal injection into the lateral cerebral ventricle): Normal weight gain is promoted
IGF-I: insulin-like growth factor I | minimal weight gain |  |  | effect on body weight [3]: cause weight gain; effect on body weight [4]: cause weight gain
bFGF: basic fibroblast growth factor |  | either decrease normal body weight gain or cause weight loss |  | 
NGF: Nerve growth factor | no weight gain | either decrease normal body weight gain or cause weight loss | cause weight loss | effect on body weight [6]: marked weight reduction
B1 |  | either decrease normal body weight gain or cause weight loss | cause weight loss | 
B2 |  | either decrease normal body weight gain or cause weight loss | cause weight loss | 
